# From patent publication US10925839B2, “Composition for treating joint disease and kit containing same” (SEIKAGAKU CORPORATION, priority 2017, dated 2021)
# Test system: human knee osteoarthritis patients
# Assay: Randomized placebo-controlled double-blind trial, WOMAC A (pain) evaluation by VAS
# Format: in vivo
# Conditions: 12 weeks after initial administration; for WOMAC-A Change (average change from baseline): MMRM estimate
# Experimental: The effectiveness of the investigational drug (test drug (composition for treating joint disease of invention) or placebo) when administered 3 times at four-week intervals in the knee joint cavities of human knee osteoarthritis patients was investigated by a multi-center collaborative, randomized, placebo-controlled, double-blind, parallel-group comparison trial. The test drug and placebo were as follows:
# Test drug: 3 mL of aqueous solution for injection containing 30 mg of test substance (3.6 mg as diclofenac);
# The total amount (3 mL) of the test drug or placebo was administered (injected) into the knee joint cavities of the affected knees of the target patients on week 0, week 4 and week 8 for a total of three injections.
# Effectiveness was evaluated by the following evaluation methods at the time of the initial administration and at evaluation points 1, 2, 4, 6, 8, 10 and 12 weeks after the initial administration.
# Effectiveness was evaluated using the WOMAC® evaluation (The Journal of Rheumatology 1988; 15:12, p. 1833-1840) developed by Dr. Nicholas Bellamy. The WOMAC(r) evaluation has been established as a method for evaluating osteoarthritis (The Journal of Rheumatology 2000; 27:11, p. 2635-2641).
# The patient response method used the VAS (Visual Analog Scale). With the VAS, the degree of a patient's own feelings in response to each question is indicated by the patient on a 100 mm line, and the degree is evaluated according to the position on the line. Position is represented as length from the left end of the scale. For example, a patient is asked the same question about pain in evaluations before and after administration, and the patient responds by indicating a position (degree) on the scale. Numerical values for improvement are then obtained based on the difference between the length indicated by the patient before administration (baseline) and the length indicated by the patient during each evaluation after administration.
# The improvement effects were quantified based on the difference between the length indicated by the patient before administration (baseline) and the length indicated by the patient at the time of each evaluation after administration. The analysis results for questions about pain (WOMAC® A: evaluates intensity of pain during walking, etc.) are shown in Table 1 below. In the table, the lower the value of the change difference below 0, the greater the improvement effect.
substance,measurement,setting,value
Sodium hyaluronate with introduced aminoethanol-diclofenac [Test Drug],WOMAC-A Change difference (test drug group minus placebo group),patients with 25 ≤ BMI and 26 ≤ DP (weeks),−13.7
same,WOMAC-A Change (average change from baseline),"patients with 25 ≤ BMI and 26 ≤ DP (weeks), VAS 100 mm line",−30.7
same,WOMAC-A Change difference (test drug group minus placebo group),"patients with 25 ≤ BMI and 26 ≤ DP (weeks), listed as test drug",extremely great improvement effect
same,WOMAC-A Change difference (test drug group minus placebo group),patients with BMI 25≤ kg/m^2,−13.4
same,WOMAC-A Change (average change from baseline),"patients with BMI 25≤ kg/m^2, VAS 100 mm line",−32.6
same,WOMAC-A Change difference (test drug group minus placebo group),patients with BMI <25 and/or DP <26 weeks,−3.2
same,WOMAC-A Change (average change from baseline),"patients with BMI <25 and/or DP <26 weeks, VAS 100 mm line",−27.2
same,WOMAC-A Change difference (test drug group minus placebo group),patients with BMI <25 kg/m^2,−2.1
same,WOMAC-A Change (average change from baseline),"patients with BMI <25 kg/m^2, VAS 100 mm line",−25.2
same,WOMAC-A Change (average change from baseline),"whole group, 30 mg test substance intra-articular at weeks 0, 4, 8, VAS 100 mm line",−28.7
same,WOMAC-A Change difference (test drug group minus placebo group),"whole group, VAS 100 mm line",−7.0
